From US11723929B2, “Methods of improving cell-based therapy” (THE REGENTS OF THE UNIVERSITY OF CALIFORNIA, priority 2017, dated 2023)

What was measured:
Exp. logP (Table 3) = assay type: physicochemical
[1] = PTZ Induced Seizure Model; Example 52 and FIG. 7 of WO 2015/148954; cited from earlier work
Metabolic stability = assay type: in vitro ADME
Description: (§1) Both the 1- and the 2-adamantyl ureas have been tested and have about the same high activity as an inhibitor of sEH.

sEH [2] = molecular target: T1, sEH (Homo sapiens (Human), UniProt P34913); assay: Testing as inhibitor of sEH; assay type: biochemical
Description: Derivatives of urea are transition state mimetics that form a group of sEH inhibitors. […] Any particular urea derivative or other compound can be easily tested for its ability to inhibit sEH by standard assays, such as those discussed herein. The production and testing of urea and carbamate derivatives as sEH inhibitors is set forth in detail in, for example, Morisseau et al., Proc Natl Acad Sci (USA) 96:8849-8854 (1999).
as §1
One category of these inhibitors comprises inhibitors that mimic the substrate for the enzyme. The lipid alkoxides (e.g., the 9-methoxide of stearic acid) are an exemplar of this group of inhibitors.

[3] = cited from earlier work
[4] = test system: murine myocardial infarction (MI) model; assay: Flow cytometric quantification of GFP+ hiPSC-CMs in the post MI model; conditions: NSG mice post MI with transplanted hiPSC-CMs, with or without TPPU; after 4 weeks
[5] = test system: murine myocardial infarction (MI) model; assay: Echocardiography, left ventricular fractional shortening after MI; assay type: in vivo, mouse
Experimental: The animals were followed for a period of three weeks at which time repeat echocardiograms were performed.
An increase in hiPSC-CMs engraftment translated into a significant improvement in cardiac function.

PDE4 = PDE4 inhibition by cAMP increase in live HEK cells transfected with a PKA biosensor; assay type: cell-based, human; conditions: relative to Rolipram at 1 μM
[6] = test system: murine myocardial infarction (MI) model; assay: In vivo bioluminescence imaging of transplanted hiPSC-CMs in the post MI model; conditions: NSG mice post MI with transplanted hiPSC-CMs, with or without TPPU 15 mg/L in drinking water; BLI at 3 and 4 weeks
COX-1 = assay: Inhibitory activity against COX-1 (Table 4); assay type: biochemical; set-up: dose or concentration left out as unconfirmed
sEH [7] = molecular target: T1, sEH; assay: Inhibitory activity against sEH (Table 4); conditions: read-out: sEH

Row | SMILES | IC50 (sEH [7]) [nM] | COX-1 (% inhibition) (COX-1) | other results
1 | O=C(Nc1ccc(C(F)(F)F)cc1)NC1CCN(C(=O)C2(C(F)(F)F)CC2)CC1 |  |  | logP (Exp. logP (Table 3)): 4.63
2 | O=C(Nc1ccc(OC(F)(F)F)c(F)c1)NC1CCN(C(=O)C2CCOCC2)CC1 [1-(3-fluoro-4-(trifluoromethoxy)phenyl)-3-(1-(tetrahydro-2H-pyran-4-carbo-nyl)piperidin-4-yl)urea] |  |  | crossing of the blood-brain barrier [1]: cross the blood-brain barrier
3 | CCCCCCCCCCCCNC(=O)NC12CC3CC(CC(C3)C1)C2 [ADU, N-Adamantyl-N′-dodecyl urea] |  |  | metabolic stability (Metabolic stability): metabolically stable; activity as inhibitor of sEH (sEH [2]): particularly high activity
4 | CCC(=O)N1CCC(NC(=O)Nc2ccc(OC(F)(F)F)cc2)CC1 [TPPU] |  |  | half-life ([3]; compared with many previous compounds (ref. 50)): relatively longer half-life; area under the curve ([3]; in vivo): high area under the curve values; number of GFP+ hiPSC-CMs by flow cytometry [4]: 9.9±0.5%; improvement of FS with both sEHI and cells ([5]; MI+hiPSC-CM+TPPU, highest compared to other treatment groups): 40%; left ventricular fractional shortening (FS), MI+hiPSC-CM+TPPU group ([5]; after three weeks of TPPU treatment (before treatment 44±6%)): 61±2%; fractional shortening (FS), MI+TPPU group ([5]; post treatment): 55±0.7%; fractional shortening (FS), MI+TPPU+Vehicle (PBS injection) group ([5]; post treatment): 51±2%; cAMP increase (% of Rolipram) (PDE4): 40 ± 10 % of Rolipram; BLI signal of transplanted GFP+ hiPSC-CMs [6]: 7.4×10^6±1.7×10^6 photons/s/cm^2/sr
5 | CS(=O)(=O)c1ccc(-n2nc(CNC(=O)NC34CC5CC(CC(C5)C3)C4)cc2-c2ccccc2)cc1 [compound 1860, 1-Adamantan-1-yl-3-[1-(4-methanesulfonyl-phenyl)-5-phenyl-1H-pyrazol-3-ylmethyl]-urea] | 25 ± 1 | 12.7 | 
6 | CS(=O)(=O)c1ccc(-n2nc(CNC(=O)Nc3cccc(C(F)(F)F)c3)cc2-c2ccccc2)cc1 [compound 1861, 1-[1-(4-Methanesulfonyl-phenyl)-5-phenyl-1H-pyrazol-3-ylmethyl]-3-(3-trifluoromethyl-phenyl)-urea] | 72 ± 8 | 7.8 | 
7 | CC(C)(C)c1cc(CNC(=O)Nc2cccc(C(F)(F)F)c2)nn1-c1ccc(S(C)(=O)=O)cc1 [compound 2106, 1-[5-tert-Butyl-1-(4-methanesulfonyl-phenyl)-1H-pyrazol-3-ylmethyl]-3-(3-trifluoromethyl-phenyl)-urea] | 32 ± 3 | 2.4 | 
8 | NS(=O)(=O)c1ccc(-n2nc(CNC(=O)Nc3cccc(C(F)(F)F)c3)cc2-c2ccccc2)cc1 [compound 2107, 4-{5-Phenyl-3-[3-(3-trifluoromethyl-phenyl)-ureidomethyl]-pyrazol-1-yl}-benzenesulfonamide] | 84 ± 6 | 16.9 | 
9 | NS(=O)(=O)c1ccc(-n2nc(NC(=O)Nc3cccc(C(F)(F)F)c3)cc2-c2ccccc2)cc1 [compound 2121, 4-{5-Phenyl-3-[3-(3-trifluoromethyl-phenyl)-ureido]-pyrazol-1-yl}-benzenesulfonamide] | 88 ± 5 | 33.9 | 
10 | Cc1ccc(-c2cc(CCCNC(=O)Nc3cccc(C(F)(F)F)c3)nn2-c2ccc(S(N)(=O)=O)cc2)cc1 [compound 2152, 4-(5-p-Tolyl-3-{3-[3-(3-trifluoromethyl-phenyl)-ureido]-propyl}-pyrazol-1-yl)-benzenesulfonamide] | 10 ± 1 | 12.1 | 
11 | NS(=O)(=O)c1ccc(-n2nc(CCNC(=O)Nc3cccc(C(F)(F)F)c3)cc2-c2ccccc2)cc1 [compound 2313, 4-(5-Phenyl-3-{2-[3-(3-trifluoromethyl-phenyl)-ureido]-ethyl}-pyrazol-1-yl)-benzenesulfonamide] | 26 ± 3 | 22.0 | 
12 | CS(=O)(=O)c1ccc(-n2nc(CNC(=O)Nc3ccccc3)cc2-c2ccccc2)cc1 [compound 2322, 1-[1-(4-Methanesulfonyl-phenyl)-5-phenyl-1H-pyrazol-3-ylmethyl]-3-phenyl-urea] | 47 ± 4 |  | 
13 | CS(=O)(=O)c1ccc(-n2nc(CNC(=O)Nc3ccc(C(F)(F)F)cc3)cc2-c2ccccc2)cc1 [compound 2324, 1-[1-(4-Methanesulfonyl-phenyl)-5-phenyl-1H-pyrazol-3-ylmethyl]-3-(4-trifluoromethyl-phenyl)-urea] | 110 ± 5 | 10.7 | 
14 | CC(C)c1cccc(C(C)C)c1NC(=O)NCCCc1cc(-c2ccccc2)n(-c2ccc(S(N)(=O)=O)cc2)n1 [compound 2325, 4-(3-{3-[3-(2,6-Diisopropyl-phenyl)-ureido]-propyl}-5-phenyl-pyrazol-1-yl)-benzenesulfonamide] | 1550 ± 70 | 6.2 | 

Further lines, with some results ahead:

Row | IC50 (sEH [7]) [nM] | SMILES | COX-1 (% inhibition) (COX-1) | other results
15 | 3.4 ± 0.2 | CS(=O)(=O)c1ccc(-n2nc(CCCNC(=O)Nc3cccc(C(F)(F)F)c3)cc2-c2ccccc2)cc1 [compound 1862, 1-{3-[1-(4-Methanesulfonyl-phenyl)-5-phenyl-1H-pyrazol-3-yl]-propyl}-3-(3-trifluoromethyl-phenyl)-urea] | 6.4 | 
16 | 0.8 ± 0.1 | NS(=O)(=O)c1ccc(-n2nc(CCCNC(=O)Nc3ccccc3)cc2-c2ccccc2)cc1 [compound 2245, 4-{5-Phenyl-3-[3-(3-phenyl-ureido)-propyl]-pyrazol-1-yl}-benzenesulfonamide] | 15.8 | 
17 | 4.1 ± 0.4 | NS(=O)(=O)c1ccc(-n2nc(CCCNC(=O)Nc3cccc(C(F)(F)F)c3)cc2-c2ccccc2)cc1 [compound 2246, 4-(5-Phenyl-3-{3-[3-(3-trifluoromethyl-phenyl)-ureido]-propyl}-pyrazol-1-yl)-benzenesulfonamide] | 27.2 | 
18 | 0.5 ± 0.1 | NS(=O)(=O)c1ccc(-n2nc(CCCNC(=O)NC3CCCCCC3)cc2-c2ccccc2)cc1 [compound 2247, 4-{3-[3-(3-Cycloheptyl-ureido)-propyl]-5-phenyl-pyrazol-1-yl}-benzenesulfonamide] | 10.2 | 
19 | 2.6 ± 0.3 | CS(=O)(=O)c1ccc(-n2nc(CNC(=O)NC3CCCCCC3)cc2-c2ccccc2)cc1 [compound 2321, 1-Cycloheptyl-3-[1-(4-methanesulfonyl-phenyl)-5-phenyl-1H-pyrazol-3-ylmethyl]-urea] | 3.4 | 
20 | 6 ± 0.5 | CS(=O)(=O)c1ccc(-n2nc(CNC(=O)Nc3ccc(OC(F)(F)F)cc3)cc2-c2ccccc2)cc1 [compound 2323, 1-[1-(4-Methanesulfonyl-phenyl)-5-phenyl-1H-pyrazol-3-ylmethyl]-3-(4-trifluoromethoxy-phenyl)-urea] | 10.4 | 
21 | 0.5 ± 0.1 | NS(=O)(=O)c1ccc(-n2nc(CCCNC(=O)NC34CC5CC(CC(C5)C3)C4)cc2-c2ccccc2)cc1 [compound 2326, 4-{3-[3-(3-Adamantan-1-yl-ureido)-propyl]-5-phenyl-pyrazol-1-yl}-benzenesulfonamide] | 6.7 | 
22 | 0.8 ± 0.1 | NS(=O)(=O)c1ccc(-n2nc(CCCNC(=O)Nc3ccc(Cl)cc3)cc2-c2ccccc2)cc1 [compound 2327, 4-(3-{3-[3-(4-Chloro-phenyl)-ureido]-propyl}-5-phenyl-pyrazol-1-yl)-benzenesulfonamide] | 15.2 | 
23 | 0.9 ± 0.1 | NS(=O)(=O)c1ccc(-n2nc(CCCNC(=O)Nc3ccc(C(F)(F)F)cc3)cc2-c2ccccc2)cc1 [compound 2328, 4-(5-Phenyl-3-{3-[3-(4-trifluoromethyl-phenyl)-ureido]-propyl}-pyrazol-1-yl)-benzenesulfonamide] | 22.7 | 
24 | 0.5 ± 0.1 | NS(=O)(=O)c1ccc(-n2nc(CCCNC(=O)Nc3ccc(OC(F)(F)F)cc3)cc2-c2ccccc2)cc1 [compound 2329, 4-(5-Phenyl-3-{3-[3-(4-trifluoromethoxy-phenyl)-ureido]-propyl}-pyrazol-1-yl)-benzenesulfonamide] | 13.8 | 
